Assay results published in patent US8735432B2, “N-(Heteroaryl)-1-heteroarylalky1-1H-indole-2-carboxamide derivatives, preparation and therapeutic use thereof” (Sanofi, priority 2005, dated 2014).

Key:
TRPV1 receptors = target: T1, TRPV1 receptors (Mus musculus, UniProt Q704Y3); assay: Test of mouse corneal irritation (capsaicin ocular instillation); type: in vivo; settings: percentage of protection, pretreatment time t = 1 h, capsaicin 2 μl of 160 μM in the eye
T1 construct: from tissue; host or cells: living mouse, cornea (C fibres)
Method: Test of Mouse Corneal Irritation
The irritant nature of capsaicin is readily assessed on the cornea since this organ is one of the organs most densely innervated with C fibres. In this context, from preliminary experiments, the application of a very small amount of capsaicin (2 μl at a concentration of 160 μM) to the surface of the cornea of an animal leads to a certain number of stereotypic behavioral traits associated with irritation, which are easy to detect. Among these, the following are noted: blinking of the eye, rubbing of the instilled eye with the ipsilateral front paw, rubbing of the face with both front paws, scratching of the ipsilateral face with the hind paw. […] This aspect is moreover also normal. […]
In practice, the test product is administered orally and, with a delay (pretreatment time: t) that depends on the pharmacokinetic data, the animal receives an ocular instillation of 2 μl of a 160 μM capsaicin solution prepared as indicated above. During a 2-minute observation following the instillation, the number of times the instilled eye is rubbed with the ipsilateral front paw is recorded.
For a given animal, the percentage of protection is calculated as follows: P=100−((number of scratching actions observed/mean number of scratching actions for the group treated with the solvent)×100) […]

TRPV1 receptor = target: T2, TRPV1 receptor (Rattus norvegicus, UniProt O35433); assay: Inhibition of the current induced with capsaicin on rat DRGs (whole-cell patch-clamp); type: cell-based; settings: DRG neuron; compound at 3 nM; inhibition of control capsaicin response (300 nM); newborn rat DRG neurons; read-out: % inhibition as a DRG patch
T2 construct: The neurons of the DRG naturally express the TRPV1 receptor; endogenous in cells; host or cells: primary culture of newborn rat dorsal root ganglion neurons
Method: Test of Inhibition of the Current Induced with Capsaicin on Rat DRGs
Primary Culture of Rat Dorsal Root Ganglion (DRG) Cells:
The neurons of the DRG naturally express the TRPV1 receptor.
The primary cultures of newborn rat DRGs are prepared using 1-day-old rats. Briefly, after dissection, the ganglions are trypsinized and the cells dissociated by mechanical trituration. The cells are resuspended in an Eagle basal culture medium containing 10% fetal calf serum, 25 mM KCl, 2 mM glutamine, 100 μg/ml gentamicin and 50 ng/ml of NGF, and then deposited on glass slides coated with laminin (0.25×10^6 cells per slide), which are then placed in Corning 12-well dishes. The cells are incubated at 37° C. in a humidified atmosphere containing 5% CO2 and 95% air. […]
The measuring chambers (volume 800 μl) containing the cell preparation are placed on the platform of an inverted microscope (Olympus IMT2) equipped with Hoffman optics (Modulation Contrast, New York) and observed at a magnification of 400×. […] The overall currents (membrane potential set at −60 mV) are recorded with an Axopatch 1D amplifier (Axon Instruments, Foster City, Calif.), connected to a PC running the Pclamp8 software (Axon Instrument). The current plots are recorded on paper and simultaneously digitized (sampling frequency 15 to 25 Hz) and acquired on the hard drive of the PC. […]

T1 sequence (Q704Y3 whole entry): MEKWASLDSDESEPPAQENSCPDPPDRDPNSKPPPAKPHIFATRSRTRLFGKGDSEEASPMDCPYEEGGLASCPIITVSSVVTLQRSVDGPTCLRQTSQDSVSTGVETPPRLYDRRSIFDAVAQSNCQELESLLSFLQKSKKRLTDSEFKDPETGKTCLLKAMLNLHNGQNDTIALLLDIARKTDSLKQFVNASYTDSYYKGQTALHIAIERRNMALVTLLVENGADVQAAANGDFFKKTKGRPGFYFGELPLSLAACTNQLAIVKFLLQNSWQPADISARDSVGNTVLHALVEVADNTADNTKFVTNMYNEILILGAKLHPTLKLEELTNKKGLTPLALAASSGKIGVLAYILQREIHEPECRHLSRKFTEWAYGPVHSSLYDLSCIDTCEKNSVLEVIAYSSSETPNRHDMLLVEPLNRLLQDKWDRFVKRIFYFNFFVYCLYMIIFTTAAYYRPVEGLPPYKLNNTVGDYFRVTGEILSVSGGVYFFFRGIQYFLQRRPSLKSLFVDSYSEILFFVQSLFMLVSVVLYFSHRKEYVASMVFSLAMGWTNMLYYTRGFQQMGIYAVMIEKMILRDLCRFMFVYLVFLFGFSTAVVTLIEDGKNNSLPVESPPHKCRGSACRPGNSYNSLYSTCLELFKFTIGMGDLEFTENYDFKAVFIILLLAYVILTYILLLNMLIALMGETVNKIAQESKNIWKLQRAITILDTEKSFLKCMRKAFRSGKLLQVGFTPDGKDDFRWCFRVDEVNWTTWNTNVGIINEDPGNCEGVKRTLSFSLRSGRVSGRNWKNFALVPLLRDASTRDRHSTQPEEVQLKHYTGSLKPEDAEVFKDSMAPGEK
T2 sequence (O35433 whole entry): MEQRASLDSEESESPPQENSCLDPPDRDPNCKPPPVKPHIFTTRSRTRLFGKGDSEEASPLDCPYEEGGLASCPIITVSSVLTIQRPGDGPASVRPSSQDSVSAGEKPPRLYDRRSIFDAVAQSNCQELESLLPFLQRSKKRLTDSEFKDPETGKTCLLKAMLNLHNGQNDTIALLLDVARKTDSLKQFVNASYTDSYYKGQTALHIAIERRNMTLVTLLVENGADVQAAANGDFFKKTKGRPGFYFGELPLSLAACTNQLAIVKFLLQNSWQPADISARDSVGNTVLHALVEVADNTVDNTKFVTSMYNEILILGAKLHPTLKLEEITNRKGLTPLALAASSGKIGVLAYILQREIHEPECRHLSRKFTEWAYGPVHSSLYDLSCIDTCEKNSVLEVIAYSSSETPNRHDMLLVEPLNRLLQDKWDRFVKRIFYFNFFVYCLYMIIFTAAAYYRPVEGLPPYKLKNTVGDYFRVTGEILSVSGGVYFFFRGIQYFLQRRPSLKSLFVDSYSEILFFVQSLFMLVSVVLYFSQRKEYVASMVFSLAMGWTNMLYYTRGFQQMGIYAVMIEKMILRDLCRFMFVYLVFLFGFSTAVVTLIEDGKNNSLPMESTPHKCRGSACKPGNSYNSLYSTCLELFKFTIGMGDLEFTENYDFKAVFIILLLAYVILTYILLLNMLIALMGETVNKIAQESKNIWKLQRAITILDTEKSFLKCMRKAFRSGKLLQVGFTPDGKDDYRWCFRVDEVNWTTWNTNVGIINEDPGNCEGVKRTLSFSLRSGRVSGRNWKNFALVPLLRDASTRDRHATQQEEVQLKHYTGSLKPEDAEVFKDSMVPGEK

Structure (SMILES) | melting point | % P - (t) at 1 mg/kg (po) (TRPV1 receptors) | inhibition at 0.003 µM (TRPV1 receptor)
Cc1ncc(Cn2c(C(=O)Nc3ccc4c(c3)nc(C)n4C)cc3cc(F)ccc32)nc1C | 226 to 228 °C |  | 
Cl.Cn1ccc2cc(NC(=O)c3cc4cc(F)ccc4n3Cc3ccncc3)ccc21 [Compound 3, N-(1-Methyl-1H-indol-5-yl)-5-fluoro-1-[(pyrid-4-yl)methyl]-1H-indole-2-carboxamide hydrochloride (1:1)] |  | 44% - (1 h) | 
Cc1nc2cc(NC(=O)c3cc4cc(C(C)(C)C)ccc4n3Cc3ccncc3)ccc2n1C.Cl.Cl [Compound 6, N-(1,2-Dimethyl-1H-benzimidazol-5-yl)-5-t-butyl-1-[(pyrid-4-yl)methyl]-1H-indole-2-carboxamide hydrochloride (1:2)] |  | 24% - (1 h) | 80%

Second part, led by results:

melting point | Structure (SMILES) | % P - (t) at 1 mg/kg (po) (TRPV1 receptors) | inhibition at 0.003 µM (TRPV1 receptor)
269 to 275 °C | Cc1cnc(C)c(Cn2c(C(=O)Nc3ccc4c(c3)nc(C)n4C)cc3cc(F)ccc32)n1 |  | 
266 to 269 °C | Cc1cnc(Cn2c(C(=O)Nc3ccc4c(c3)nc(C)n4C)cc3cc(F)ccc32)c(C)n1 |  | 
